Measured values reported in US20200129535A1, “DESMOCOLLIN 1 INHIBITORS FOR THE PREVENTION OR TREATMENT OF ATHEROSCLEROSIS” (priority 2017, published 2020).
Where two headings read alike, the source gives them in different places.

System: Primary human skin fibroblasts
Test: apoA-I-mediated cholesterol efflux study (promotion of HDL biogenesis) with compounds
Type: cell-based
Conditions: for EC50: Homo sapiens, Skin fibroblast, [3H]-cholesterol-labelled, cholesterol-loaded fibroblasts, 5 μg/ml apoA-I for 24 h, compound added during equilibration and apoA-I treatment
Description: FIGS. 17(A) to 17(C) show rutin (A), acarbose (B) and docetaxel (C) can promote apoA-I-mediated cholesterol efflux. Primary human skin fibroblasts were labelled with 0.2 μCi/ml of [^3H]-cholesterol during growth, loaded with 30 μg/ml of unlabeled cholesterol for 24 h, equilibrated for 24 h, and treated with 5 μg/ml of apoA-I for 24 h to determine efflux of cellular cholesterol by apoA-I. The indicated concentrations of rutin, acarbose and docetaxel were added during the equilibration and apoA-I treatment period. Results are expressed as percentage of total (cell plus medium) [^3H]-sterol appearing in the medium. Values are the mean+SD of quadruplicate determinations. One-way analysis of variance with Dunnett's post-hoc correction was performed to calculate multiplicity-adjusted P values. *P<0.05; **P<0.001; ***P<0.0001 compared with the group treated with apoA-I alone.
To investigate the biological activity of the 51 compounds identified in Example 3 in modulating HDL biogenesis, we performed an apoA-I-mediated cholesterol efflux study as described previously (see Choi, H. Y. et al., J Biol Chem 278, 32569-32577 (2003)).

Row | Structure (SMILES) | EC50 (read-out: EC50 value, promotion of apoA-I-mediated HDL biogenesis) [µM] | effect on apoA-I-mediated cholesterol efflux (FIG. 17, compared with the group treated with apoA-I alone) | EC50 (read-out: half-maximal effective concentration (EC50), promotion of apoA-I-mediated HDL biogenesis) [µM] | potency rank in promoting HDL biogenesis among the 3 most active compounds (dose-response curves, FIG. 17)
1 | C[C@H]1O[C@H](O[C@H]2[C@H](O)[C@@H](O)[C@@H](O[C@H]3[C@H](O)[C@@H](O)C(O)O[C@@H]3CO)O[C@@H]2CO)[C@H](O)[C@@H](O)[C@@H]1N[C@H]1C=C(CO)[C@@H](O)[C@H](O)[C@H]1O (stereo partly shown) [No. 2, Acarbose] | 6.59 |  |  | 
2 | CC(=O)O[C@@]12CO[C@@H]1C[C@H](O)[C@@]1(C)C(=O)[C@H](O)C3=C(C)[C@@H](OC(=O)[C@H](O)[C@@H](NC(=O)OC(C)(C)C)c4ccccc4)C[C@@](O)([C@@H](OC(=O)c4ccccc4)[C@H]21)C3(C)C [No. 17, Docetaxel] |  | promote | 0.00072 | most potent
